Publication PMC8179437 (Chemical Science, 2021)

Target: T1, TDP1 (Homo sapiens, UniProt Q9NUW8)
Assay: TDP1 Lineweaver–Burk analysis
Assay type: biochemical
Settings: not given

T1 sequence (Q9NUW8 whole entry): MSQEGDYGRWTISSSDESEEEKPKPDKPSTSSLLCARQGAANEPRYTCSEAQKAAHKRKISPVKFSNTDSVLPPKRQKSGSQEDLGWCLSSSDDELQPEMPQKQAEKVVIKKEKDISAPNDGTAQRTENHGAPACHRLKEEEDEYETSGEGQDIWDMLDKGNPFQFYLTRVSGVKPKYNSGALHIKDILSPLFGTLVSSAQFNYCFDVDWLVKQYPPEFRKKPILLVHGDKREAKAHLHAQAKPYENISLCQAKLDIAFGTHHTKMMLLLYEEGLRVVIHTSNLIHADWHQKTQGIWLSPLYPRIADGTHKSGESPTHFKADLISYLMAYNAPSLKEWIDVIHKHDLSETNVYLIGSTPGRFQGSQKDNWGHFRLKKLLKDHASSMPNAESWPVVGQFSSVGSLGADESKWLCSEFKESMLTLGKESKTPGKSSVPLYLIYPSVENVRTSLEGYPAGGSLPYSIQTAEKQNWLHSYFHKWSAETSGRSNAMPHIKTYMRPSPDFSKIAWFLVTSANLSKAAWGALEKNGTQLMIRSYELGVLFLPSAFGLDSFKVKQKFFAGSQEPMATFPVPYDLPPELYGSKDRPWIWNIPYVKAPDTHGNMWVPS

Row | Compound | mode of inhibition
1 | O=C(O)c1ccc(Nc2c(-c3ccccc3)nc3ccccn23)cc1 [Compound 8a, 4-((2-Phenylimidazo[1,2-a]pyridin-3-yl)amino)benzoic acid] | competitive
2 | O=C(O)c1ccc(Nc2c(-c3ccccc3)nc3cnccn23)cc1 [Compound 7b, 4-((2-Phenylimidazo[1,2-a]pyrazin-3-yl)amino)benzoic acid] | competitive

Next, values leading:

Row | mode of inhibition | Compound
3 | competitive | O=C(O)c1ccc(Nc2c(-c3ccccc3)nc3cnccn23)cc1C(=O)O [Compound 10a, 4-((2-Phenylimidazo[1,2-a]pyrazin-3-yl)amino)phthalic acid]
4 | competitive | O=C(O)c1ccc(Nc2c(-c3ccccc3)nc3ccccn23)cc1C(=O)O [Compound 10b, 4-((2-Phenylimidazo[1,2-a]pyridin-3-yl)amino)phthalic acid]

Target: T1, TDP1
Assay: TDP1 gel-based in vitro assay
Assay type: biochemical
Settings: Table 1 and main text

Row | Compound | IC50
5 | O=C(O)c1ccc(Nc2c(-c3ccc(O)cc3)nc3ccccn23)cc1 [Compound 8f, 4-((2-(4-Hydroxyphenyl)imidazo[1,2-a]pyridin-3-yl)amino)benzoic acid] | > 100 µM
6 | c1ccc(Nc2c(-c3ccccc3)nc3ccccn23)cc1 [Compound 6t, N,2-Diphenylimidazo[1,2-a]pyridin-3-amine] | > 100 µM
7 | O=C(O)c1ccc(Nc2c(-c3ccc(C(=O)O)cc3)nc3ccccn23)cc1 [Compound 8h, 4-(3-((4-Carboxyphenyl)amino)imidazo[1,2-a]pyridin-2-yl)benzoic acid] | > 100 µM
8 | CS(=O)(=O)c1ccc2nc(-c3ccc(-c4ccccc4)cc3)c(Nc3ccc(C(=O)O)cc3)n2c1 [Compound 8r, 4-((2-([1,1'-Biphenyl]-4-yl)-6-(methylsulfonyl)imidazo[1,2-a]pyridin-3-yl)amino)benzoic acid] | 9.95 µM
9 | CS(=O)(=O)c1ccc2nc(-c3ccccc3)c(Nc3ccc(C(=O)O)cc3)n2c1 [Compound 8q, 4-((6-(Methylsulfonyl)-2-phenylimidazo[1,2-a]pyridin-3-yl)amino)benzoic acid] | 1.8 µM

Next, values leading:

Row | IC50 | Compound
10 | > 100 µM | O=C(O)c1ccc(Cn2c(-c3ccccc3)nc3ccccc32)cc1 [Compound 9a, 4-((2-Phenyl-1H-benzo[d]imidazol-1-yl)methyl)benzoic acid]
11 | > 100 µM | O=C(O)c1ccc(Cn2c(-c3ccccc3)cc3ccccc32)cc1 [Compound 9b, 4-((2-Phenyl-1H-indol-1-yl)methyl)benzoic acid]
